The structures appear in SMILES notation. ≈ marks a conversion by molar mass, not a printed value.

Drawing on ChEMBL document CHEMBL1124186, “Synthesis and evaluation of tylosin-related macrolides modified at the aldehyde function: a new series of orally effective antibiotics” (1988), this text covers MIC and ED50 for two compounds.

Assay [1] deals with Haemophilus influenzae. As to the kind of experiment: In vitro antimicrobial activity against Haemophilus influenzae. The format is functional.
The subject of assay [2] is Staphylococcus aureus. Nature of the assay: In vitro antimicrobial activity against Staphylococcus aureus X1. The format is functional.
Assay [3] has as its system Streptococcus pneumoniae. As to the kind of experiment: In vivo effective dose against experimental infections in mice Streptococcus pneumoniae park when administered orally. As to conditions: po. The format is functional.
Assay [4] concerns Streptococcus pneumoniae. As to the kind of experiment: In vivo effective dose against experimental infections in mice Streptococcus pneumoniae park when administered sc. The format is functional.
Assay [5] has as its system Streptococcus pyogenes. Nature of the assay: In vivo effective dose against experimental infections in rodent caused by Streptococcus pyogenes C203 when administered sc. The assay is classed as functional.
For assay [6], the system named is Streptococcus pneumoniae. Nature of the assay: In vitro antimicrobial activity against Streptococcus pneumoniae. The format is functional.
Assay [7] deals with Staphylococcus epidermidis. Nature of the assay: In vitro antimicrobial activity against Staphylococcus epidermidis EPI1. The assay is classed as functional.
Assay [8] concerns Enterococcus faecium. Nature of the assay: In vitro antimicrobial activity against Streptococcus faecium X66. The format is functional, streptococcus fae-cium.
In assay [9] the test system is Streptococcus pyogenes. Nature of the assay: In vitro antimicrobial activity against Streptococcus pyogenes C203. The assay is classed as functional.
Assay [10] deals with Streptococcus pyogenes. Nature of the assay: In vivo effective dose against experimental infections in rodent caused by Streptococcus pyogenes C203 when administered orally. The assay is classed as functional. As to conditions: po.

Broadly, the ED50 is the midpoint of the dose-response relation. Read a high ED50 as a need for a large dose. In the case of `CC[C@H]1OC(=O)C[C@@H](O)[C@H](C)[C@@H](O[C@@H]2O[C@H](C)[C@@H](O)[C@H](N(C)C)[C@H]2O)[C@@H](CCOc2ccc(Oc3ccccc3)cc2)C[C@@H](C)C(=O)/C=C/C(C)=C/[C@@H]1CO[C@@H]1O[C@H](C)[C@@H](O)[C@@H](OC)[C@H]1OC`, the MIC in assay [1] came to 16 µg/mL (≈ 17 µM); in assay [2] it was 0.5 µg/mL (≈ 0.531 µM); in assay [6] it was 0.25 µg/mL (≈ 0.265 µM); in assay [7], 0.5 µg/mL (≈ 0.531 µM); in [8], 0.5 µg/mL (≈ 0.531 µM); in assay [9], 0.25 µg/mL (≈ 0.265 µM). Further, the ED50 in assay [3] is 38 mg/kg; in assay [4], greater than 20 mg/kg; in assay [5] it was greater than 10 mg/kg; in assay [10] it was 29 mg/kg.
As to `CC[C@H]1OC(=O)C[C@@H](O)[C@H](C)[C@@H](O[C@@H]2O[C@H](C)[C@@H](O)[C@H](N(C)C)[C@H]2O)[C@@H](CCOc2cccc(Oc3ccccc3)c2)C[C@@H](C)C(=O)/C=C/C(C)=C/[C@@H]1CO[C@@H]1O[C@H](C)[C@@H](O)[C@@H](OC)[C@H]1OC`, the MIC in assay [1] turned out to be 16 µg/mL (≈ 17 µM); in [2], 0.5 µg/mL (≈ 0.531 µM); in assay [6] it was 0.25 µg/mL (≈ 0.265 µM); in [7] it was 0.5 µg/mL (≈ 0.531 µM); in assay [8], 0.5 µg/mL (≈ 0.531 µM); in [9] it was 0.25 µg/mL (≈ 0.265 µM). Also, the ED50 in [3] was 46 mg/kg; in assay [4], greater than 20 mg/kg; in assay [5], greater than 10 mg/kg; in [10] it was 35 mg/kg.
